Data on 1 sequence can be found in paper PMC10937676, “Targeting the NTSR2/TrkB oncogenic pathway in chronic lymphocytic leukemia” (Scientific Reports, 2024).

Assay [1] deals with LYN. In words: Immunoblot, relative phosphorylation level of LYN in CLL-B cells. The assay is classed as cell-based, human. Particulars: CLL-B cells from 10 patients, overnight, 10 µM. Here is the method:
(§1) Figure 5 The peptide inhibits kinase phosphorylation. CLL-B cells from 10 patients were incubated overnight, with or without 10 µM of TAT-Pep. Whole cell lysates were then prepared, and 10 µg of proteins were immunoblotted to assess the following parameters. (A) Relative phosphorylation level of SRC. (B) Relative phosphorylation level of AKT. (C) Relative phosphorylation level of LYN. (D) Relative phosphorylation level of BTK. (E) Relative phosphorylation level of all tyrosine-phosphorylated proteins.
(§2) Whole cell lysate proteins were extracted using RIPA buffer (Sigma-Aldrich) and sonication (VibraCell™). Plasma membrane proteins were recovered by using the Plasma Membrane Protein Extraction Kit (Abcam) according to the manufacturer’s instructions. A list of the antibodies used for immunoblotting is available in Supplementary Table 2. Bands were quantitatively assessed by densitometry using Fiji software. To evaluate the level of interaction of NTSR2 and TRKB we normalized the density of the TRKB bands by the density of the NTSR2 bands to obtain the relative amount of TRKB co-precipitated through NTSR2.

The target in assay [2] is NTSR2/TRKB interaction (Homo sapiens, UniProt Q16620). In words: Proximity ligation assay (PLA) for NTSR2 and TRKB in CLL-B cells. The assay is classed as cell-based. Details: endogenous in cells; host or cells: primary CLL-B cells from three CLL patients. The settings on record: CLL-B cells from three CLL patients, 10 µM overnight; compared with TAT alone or untreated; spots counted in 50 cells. Here is the method: Nuclei were stained with DAPI (blue). […] (C) Representative immunoblot of 3 independent experiments. […] Nuclei were stained with DAPI (blue). Magnification × 40.
In a second approach, we investigated the inhibition of the NTSR2/TRKB interaction in CLL-B cells from three CLL patients using PLA on NTSR2 and TRKB. The leukemic B cells were either treated with the TAT-Pep peptide, TAT alone, or left untreated, and then the proximity ligation assay was performed (Fig. 4E,F).
Cells were fixed with methanol at − 20 °C for 10 min and then the Duolink kit (Sigma) was used to perform the PLA according to the manufacturer’s instructions. Before observation, cells were mounted on glass slides with DAPI-containing mounting medium and results were observed by confocal microscopy (LSM880, Zeiss) and analyzed using the Fiji software (ImageJ).

Assay [3] has as its system Bruton Tyrosine Kinase (BTK). Put plainly: Immunoblot, relative phosphorylation level of BTK in CLL-B cells. The settings on record: CLL-B cells from 10 patients, overnight, 10 µM. The assay is classed as cell-based, human. Here is the method: as §1, §2
Assay [4] concerns CLL-B cells. Put plainly: Apoptosis of CLL-B cells, Annexin V staining (Incucyte). The assay is classed as cell-based, human. Particulars: 20,000 CLL-B cells, 6 patients, technical triplicates, Annexin V Dye, 48 h, area under the curve. An excerpt:
Concerning anti-apoptotic protein expression, a decrease in anti-apoptotic proteins BCL-2; BCL-XL and MCL-1 was observed after TAT-Pep treatment of CLL-B cells, possibly as a consequence of the SRC kinase inactivation (Fig. 6A–C). To unveil whether the regulation mechanism behind the observed modifications was transcriptional or post-transcriptional, we evaluated the mRNA levels of all three anti-apoptotic proteins following peptide treatment. […] To further underline that the induction of cell death following TAT-Pep treatment involved apoptosis regulation pathways, we used B cells from six CLL patients and stained them with Annexin V in both TAT-Pep treated and untreated conditions. As shown on Fig. 6G, TAT-Pep treatment did induce apoptosis in CLL-B cells. […] However, at 5 µM, there was already a 1.9-fold increase in cell death compared to the control. It progressively rose to a 2.5-fold increase and a 3.6-fold increase for 10 µM and 30 µM, respectively.
Figure 6 The peptide lowers anti-apoptotic proteins levels. CLL-B cells from 10 patients were incubated overnight, with or without 10 µM of TAT-Pep. Whole cell lysates were then prepared, and 10 µg of proteins were immunoblotted to assess the following parameters. (A) Relative level of the anti-apoptotic protein BCL-2 in B-CLL. (B) Relative level of the anti-apoptotic protein BCL-XL and (C) relative level of the anti-apoptotic protein MCL-1. CLL-B samples from ten different patients were utilized for the analysis. CLL-B cells from 12 patients were incubated overnight, with or without 10 µM of TAT-Pep, subsequently RNA was extracted from cell lysates and mRNA levels of BCL-2 (D); BCL-XL (E) and MCL-1 (F) were evaluated using RTqPCR; 18S was used as a housekeeping gene. (G) Increased concentrations (0 to 30 µM) of TAT-Pep were incubated with 20,000 CLL-B, and the number of Annexin V-positive cells was measured using the Incucyte live-cell imaging device. Fluorescence was monitored for 48 h. […] The ‘Green Object Count/Phase Object Count’ ratio was determined using the Incucyte analysis software to obtain the percentage of apoptotic cells. The area under the curve for each condition was then calculated, and they were compared using a t-test.
Cell viability and survival were monitored using the IncucyteS3 system (Sartorius), a live-cell imaging device enabling the tracking of fluorescence over set periods of time[41],[42]. […] In all analyses, the ‘Green Object Count/Phase Object Count’ ratio was determined using the Incucyte analysis software to obtain the percentage of dead cells. The area under the curve for each condition was then calculated, and they were compared using a t-test. To evaluate proliferation, phase confluence was determined and normalized with t = 0 h using the Incucyte analysis software.

Assay [5] deals with all tyrosine-phosphorylated proteins. In words: Immunoblot, relative phosphorylation level of all tyrosine-phosphorylated proteins in CLL-B cells. The assay is classed as cell-based, human. Particulars: CLL-B cells from 10 patients, overnight, 10 µM. Here is the method:
as §1, §2
Background: A western blot detects proteins with antibodies after separation by electrophoresis.

Sequence of NTSR2/TRKB interaction (Q16620 32-822): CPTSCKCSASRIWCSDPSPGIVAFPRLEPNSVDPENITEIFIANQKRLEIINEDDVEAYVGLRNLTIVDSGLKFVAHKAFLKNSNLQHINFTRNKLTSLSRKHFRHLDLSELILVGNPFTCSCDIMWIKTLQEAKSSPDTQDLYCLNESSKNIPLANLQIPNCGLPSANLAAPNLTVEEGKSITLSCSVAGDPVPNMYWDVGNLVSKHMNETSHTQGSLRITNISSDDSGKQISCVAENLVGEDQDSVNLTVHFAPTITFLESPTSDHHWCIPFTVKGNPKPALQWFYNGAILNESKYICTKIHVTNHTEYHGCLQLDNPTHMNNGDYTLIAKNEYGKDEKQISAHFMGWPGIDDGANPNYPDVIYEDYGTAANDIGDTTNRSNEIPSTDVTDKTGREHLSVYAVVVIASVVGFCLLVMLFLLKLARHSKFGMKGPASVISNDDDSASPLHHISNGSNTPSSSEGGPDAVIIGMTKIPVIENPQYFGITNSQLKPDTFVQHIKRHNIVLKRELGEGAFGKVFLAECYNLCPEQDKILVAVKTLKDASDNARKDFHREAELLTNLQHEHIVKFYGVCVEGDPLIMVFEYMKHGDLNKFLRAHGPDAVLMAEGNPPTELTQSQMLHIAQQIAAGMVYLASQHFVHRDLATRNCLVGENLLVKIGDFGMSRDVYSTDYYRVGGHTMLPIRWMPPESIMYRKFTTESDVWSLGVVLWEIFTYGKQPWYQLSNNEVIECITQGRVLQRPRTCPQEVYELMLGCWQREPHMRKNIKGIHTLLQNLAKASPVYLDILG

On to “GRKKRRQRRRPPQNAVSSSFRKLFLEAVSSLCGEHHPMKRLPPKPQSPTLMDTASGFGDPPETRT [TAT-Pep]”, for which the “LYN phosphorylation (in words)” value in assay [1] is given as “significant decrease in phosphorylation”. The “PLA red fluorescence spots (proximity of NTSR2 and TRKB), in words” value in assay [2] was “dramatically reduced”. In addition, the “BTK phosphorylation (in words)” value in assay [3] was “did not affect BTK phosphorylation”. Also, the “Annexin V-positive cells compared to the control (in words)” value in assay [4] (2.5 µM) was “no significant cytotoxicity was observed”. For the same sequence, the “increase in cell death (Annexin V-positive cells) compared to the control” value worked out at 1.9 fold in assay [4] (5 µM), 2.5 fold in assay [4] (10 µM) and 3.6 fold in assay [4] (30 µM). Besides, in assay [5], the “global level of tyrosine phosphorylation (in words)” value is listed as “general decrease in tyrosine phosphorylation”.
